From US6843979B2, “4-haloethenylphenyl tropane:serotonin transporter imaging agents” (Emory University, priority 1999, dated 2005)
pIC50, pKi: −log10 of the molar value. Values joined by “and” are separate entries in the source; they are usually repeats but may differ in a detail not shown here. Identical values can stand only once. Like-named read-outs stand apart in the source and are kept apart here.

Legend:
[1] = biological target: T1, human SERT (Homo sapiens, UniProt P31645); assay: Binding site competition, cells stably transfected with human SERT, [3H]citalopram; settings: for pKi / SERT Ki: [3H]citalopram, transfected cell lines; for DAT/SERT selectivity / NET/SERT selectivity: ratio of Ki
T1 construct: expressed in transfected cells
T1 sequence (P31645 whole entry): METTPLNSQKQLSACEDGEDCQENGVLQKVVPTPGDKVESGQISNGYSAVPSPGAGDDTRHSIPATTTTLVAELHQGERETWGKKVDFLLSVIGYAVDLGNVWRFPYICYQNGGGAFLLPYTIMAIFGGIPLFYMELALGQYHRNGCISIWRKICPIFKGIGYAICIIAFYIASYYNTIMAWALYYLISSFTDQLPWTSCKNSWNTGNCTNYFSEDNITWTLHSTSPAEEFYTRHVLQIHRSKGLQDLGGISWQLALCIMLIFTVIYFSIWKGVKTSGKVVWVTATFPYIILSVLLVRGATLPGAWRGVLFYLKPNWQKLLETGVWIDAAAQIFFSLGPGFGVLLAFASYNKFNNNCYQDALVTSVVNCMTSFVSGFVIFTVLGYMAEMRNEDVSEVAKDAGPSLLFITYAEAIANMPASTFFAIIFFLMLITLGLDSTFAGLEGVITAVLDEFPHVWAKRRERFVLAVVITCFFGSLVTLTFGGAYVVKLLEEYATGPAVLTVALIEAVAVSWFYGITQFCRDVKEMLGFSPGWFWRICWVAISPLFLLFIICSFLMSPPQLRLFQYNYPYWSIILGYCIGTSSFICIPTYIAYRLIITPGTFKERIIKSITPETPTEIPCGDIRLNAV

[2] = biological target: T2, human DAT (Homo sapiens, UniProt Q01959); assay: Binding site competition, cells stably transfected with human DAT, [3H]WIN 35,428; settings: [3H]WIN 35428, transfected cell lines
T2 construct: expressed in transfected cells
T2 sequence (Q01959 whole entry): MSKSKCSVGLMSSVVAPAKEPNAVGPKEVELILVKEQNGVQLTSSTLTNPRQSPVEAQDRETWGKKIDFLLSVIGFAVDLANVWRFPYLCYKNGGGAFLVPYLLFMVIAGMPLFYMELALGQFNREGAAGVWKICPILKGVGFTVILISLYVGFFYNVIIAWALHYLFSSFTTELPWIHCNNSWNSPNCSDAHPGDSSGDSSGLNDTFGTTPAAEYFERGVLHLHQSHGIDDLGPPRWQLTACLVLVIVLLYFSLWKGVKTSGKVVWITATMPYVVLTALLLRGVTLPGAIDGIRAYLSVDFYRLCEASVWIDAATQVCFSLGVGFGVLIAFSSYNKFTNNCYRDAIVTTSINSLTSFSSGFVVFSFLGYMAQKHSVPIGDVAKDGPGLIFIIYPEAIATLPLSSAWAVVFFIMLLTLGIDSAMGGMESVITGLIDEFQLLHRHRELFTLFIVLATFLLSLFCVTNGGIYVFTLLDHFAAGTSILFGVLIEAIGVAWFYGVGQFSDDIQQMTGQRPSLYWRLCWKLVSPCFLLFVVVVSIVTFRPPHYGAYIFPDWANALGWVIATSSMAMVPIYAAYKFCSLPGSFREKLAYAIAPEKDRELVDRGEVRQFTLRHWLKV

[3] = biological target: T3, human NET (Homo sapiens, UniProt P23975); assay: Binding site competition, cells stably transfected with human NET, [3H]nisoxetine; settings: transfected cell lines
T3 construct: expressed in transfected cells
T3 sequence (P23975 whole entry): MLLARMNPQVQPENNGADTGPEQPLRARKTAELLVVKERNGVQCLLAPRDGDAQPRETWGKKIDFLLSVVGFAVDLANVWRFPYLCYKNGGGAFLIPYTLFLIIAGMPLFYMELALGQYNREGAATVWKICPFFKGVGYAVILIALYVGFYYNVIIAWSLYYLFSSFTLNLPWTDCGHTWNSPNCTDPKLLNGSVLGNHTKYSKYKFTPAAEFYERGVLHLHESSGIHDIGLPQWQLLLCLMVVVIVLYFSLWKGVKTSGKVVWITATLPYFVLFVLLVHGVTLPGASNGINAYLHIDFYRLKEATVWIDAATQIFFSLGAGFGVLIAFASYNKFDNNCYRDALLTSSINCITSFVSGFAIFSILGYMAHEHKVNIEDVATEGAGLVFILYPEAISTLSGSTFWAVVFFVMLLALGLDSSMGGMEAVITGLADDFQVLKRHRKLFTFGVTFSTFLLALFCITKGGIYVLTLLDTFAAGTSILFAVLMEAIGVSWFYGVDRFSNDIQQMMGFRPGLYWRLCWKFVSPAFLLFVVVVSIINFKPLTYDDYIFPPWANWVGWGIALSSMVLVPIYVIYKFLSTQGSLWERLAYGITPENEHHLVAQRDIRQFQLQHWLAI

[4] = system: SERT; settings: cited from earlier work
[5] = biological target: T4, 5-HTT (serotonin transporter site) (Homo sapiens, UniProt P31645); assay: Transporter affinity of N-alkyl ZIENT ligands in transfected cell lines, [3H]citalopram; assay type: binding
T4 construct: expressed in transfected cells
T4 sequence (P31645 whole entry): as the sequence (P31645 whole entry) above
Excerpt: (§1) In order to determine whether any structural modifications of ZIENT, FEINT, and FEBrNT would still yield high selectivity and specificity for SERT similar to the results seen with ZIENT, FEINT, FEBrNT and FEClNT, various substitutions on the tropane nitrogen and the 2-beta carboxyester position were made and tested in in vitro binding studies.
(§2) These studies provide a variety of new compounds which can be used as imaging agents for visualizing the location and density of serotonin transporter by PET or SPECT imaging.

[6] = biological target: T5, DAT (dopamine transporter site) (Homo sapiens, UniProt Q01959); assay: Transporter affinity of N-alkyl ZIENT ligands in transfected cell lines, [125I]TRI-55; assay type: binding
T5 construct: expressed in transfected cells
T5 sequence (Q01959 whole entry): as the sequence (Q01959 whole entry) above
Excerpt: as §1, §2

[7] = biological target: T6, NET (norepinephrine transporter site) (Homo sapiens, UniProt P23975); assay: Transporter affinity of N-alkyl ZIENT ligands in transfected cell lines, [3H]nisoxetine; assay type: binding
T6 construct: expressed in transfected cells
T6 sequence (P23975 whole entry): as the sequence (P23975 whole entry) above
Excerpt: as §1, §2

With `COC(=O)[C@@H]1C2CCC(C[C@@H]1c1ccc(/C=C/I)cc1)N2` (some centres unmarked) [EINT] as the compound, how does the pKi [1] read?
Its pKi is 8.94.

And the pKi [2]?
The pKi was 8.73.

And the pKi ([3]; read-out: NET Ki)?
The pKi was 7.49.

What about the “Selectivity for the SERT over the DAT” value [4] of the same compound?
Its value is 500 times.

And the pIC50 ([4]; vs [3H]WIN 35428 (so in the source))?
The pIC50 was 9.16.

With `COC(=O)C1C2CCC(CC1c1ccc(CCF)c(Br)c1)N2` (stereo not drawn) [FEBrNT, 2β-carbomethoxy-3β-(4-(2-fluoroethyl)-3-bromophenyl)nortropane] as the compound, how does the pKi [1] read?
Its pKi is 9.66 and 9.25 to 9.92.

What about the “SERT Ki” value [1] of the same compound?
Its value is “subnanomolar”.

And the DAT/SERT selectivity [1]?
Its DAT/SERT selectivity is 100.

What about the NET/SERT selectivity [1] of the same compound?
The NET/SERT selectivity was 573.

What about the pKi [2] of the same compound?
Its pKi is 7.63 and 7.64.

What about the pKi ([3]; NET Ki) of the same compound?
The pKi was 6.90.

What does the source list for `COC(=O)C1C2CCC(CC1c1ccc(CCF)c(Cl)c1)N2` (stereo not drawn) [FEClNT, 2β-carbomethoxy-3β-(4-(2-fluoroethyl)-3-chlorophenyl)nortropane]?
pKi [1]: 9.25 and 9.25 to 9.92; SERT Ki [1]: subnanomolar; DAT/SERT selectivity [1]: 48; NET/SERT selectivity [1]: 209; pKi [2]: 7.57; pKi ([3]; NET Ki): 6.93

With `COC(=O)C1C2CCC(CC1c1ccc(CCF)c(I)c1)N2` (stereo not drawn) [FEINT, 2β-carbomethoxy-3β-(4-(2-fluoroethyl)-3-iodophenyl)nortropane] as the compound, how does the pKi [1] read?
Its pKi is 10.00 and 9.25 to 9.92.

What about the “SERT Ki” value [1] of the same compound?
The value was “subnanomolar”.

And the DAT/SERT selectivity [1]?
The DAT/SERT selectivity was 424 and 283.

What about the NET/SERT selectivity [1] of the same compound?
Its NET/SERT selectivity is 649.

And the pKi [2]?
Its pKi is 7.37 and 7.38.

And the pKi ([3]; NET Ki)?
Its pKi is 7.19.

With `COC(=O)C1C2CCC(CC1c1ccc(CCCF)c(I)c1)N2` (centres unmarked) [FPINT] as the compound, how does the “SERT Ki” value [1] read?
Its value is “subnanomolar”.

What does the source list for `COC(=O)[C@H]1[C@@H](c2ccc(C(C)=CF)cc2)C[C@@H]2CC[C@H]1N2` [IPPNT]?
pKi [1]: 10.10; SERT Ki [1]: subnanomolar; DAT/SERT selectivity [1]: 37; pKi [2]: 8.53; pKi ([3]; read-out: NET Ki): 7.93

With `COC(=O)C1C2CCC(CC1c1ccc(/C=C\CF)cc1)N2` (stereo not drawn) [Ligand Z-3-FPNT, 2β-carbomethoxy-3β-(4′(Z-3-fluoropropenyl)phenyl)-nortropane] as the compound, how does the pKi [1] read?
Its pKi is 10.00.

What about the DAT/SERT selectivity [1] of the same compound?
Its DAT/SERT selectivity is 116.

What about the pKi [2] of the same compound?
Its pKi is 7.94.

With `COC(=O)C1C(c2ccc(C=CI)cc2)CC2CCC1N2CCF` (centres unmarked) [N-fluoroethyl ZIENT] as the compound, how does the pKi [5] read?
The pKi was 8.89.

And the pKi [6]?
The pKi was 7.57.

What about the pKi [7] of the same compound?
Its pKi is 7.68.

With `COC(=O)C1C(c2ccc(C=CI)cc2)CC2CCC1N2C` (centres unmarked) [N-methyl ZIENT] as the compound, how does the pKi [5] read?
The pKi was 9.32.

What about the pKi [6] of the same compound?
Its pKi is 7.48.

And the pKi [7]?
The pKi was 7.16.

With `COC(=O)C1C2CCC(CC1c1ccc(I)cc1)N2` (stereo not drawn) [Nor-CIT, 2β-carbomethoxy-3β-(4-iodophenyl)nortropane, reference compound] as the compound, how does the pKi [1] read?
The pKi was 9.92.

Which “Selectivity for the SERT over the DAT” value [4] does the source give for `C=C(C)c1ccc(C2CC3CCC(N3)C2C(=O)OC)cc1` (stereo not drawn) [Nor-β-CIPPT, 2β-carbomethoxy-3β-(4′-isopropenylphenyl)nortropane] here?
Its value is 38 times.

What about the pIC50 ([4]; vs [3H]paroxetine) of the same compound?
Its pIC50 is 9.22.

With `COC(=O)C1C2CCC(CC1c1ccc(C=CI)cc1)N2` (centres unmarked) [ZIENT] as the compound, how does the pKi [1] read?
Its pKi is 10.51 and 10.00 to 10.52 and 10.30.

What about the “SERT Ki” value [1] of the same compound?
The value was “subnanomolar”.

And the DAT/SERT selectivity [1]?
The DAT/SERT selectivity was 100 and 116.

What about the NET/SERT selectivity [1] of the same compound?
The NET/SERT selectivity was 484.

What about the pKi [2] of the same compound?
The pKi was 8.46.

What about the pKi ([3]; NET Ki) of the same compound?
The pKi was 7.62.

And the pKi [5]?
The pKi was 9.60.

And the pKi [6]?
The pKi was 7.80.

And the pKi [7]?
Its pKi is 7.19.
